Counter-ions that a name gives are not always drawn.
Key:
[1] = molecular target: T1, glycine site of the NMDA receptor (Rattus norvegicus, UniProt P35439); assay: Displacement of [3H]-L-689,560 from rat brain membranes (NMDA glycine site binding); conditions: [3H]-L-689,560 method, tris-acetate buffer pH 7.4, 90 minutes, read-out: IC50 (nM), binding affinity for the glycine site of the NMDA receptor
T1 construct: from tissue; host or cells: rat brain membranes
Method: J. Pharm., 104, 74 (1991).
The binding affinities of a selection of the compounds of the Examples for the glycine site of the NMDA receptor were measured using the [^3H]-L-689,560 method described on page 20 of the description.

SMILES	melting point	IC50 [1]
Cc1nnc(-c2ccccc2)n1-c1c(Cl)c(Cl)cc2[nH]c(=O)c(=O)[nH]c12 (as salt: HCl) (hydrate or solvate) [Example 73]	274 to 276 °C	–
O=c1[nH]c2cc(Cl)c(Cl)c(-c3ccncc3)c2[nH]c1=O [Example 1, 6,7-Dichloro-5-(4-pyridyl)-2,3(1H,4H)-quinoxalinedione]	> 300 °C	–
Cc1nnc(-c2ccccc2)n1-c1c(Cl)c(Cl)cc2[nH]c(=O)c(=O)[nH]c12 [Example 73]	–	4 nM
COCc1nnc(-c2cccnc2)n1-c1c(Cl)c(C)cc2[nH]c(=O)c(=O)[nH]c12 [Example 109, 6-Chloro-7-methyl-5-[5-methoxymethyl-3-(3-pyridyl)-4H-1,2,4-triazol-4-yl]-2,3(1H,4H)-quinoxalinedione]	229 to 231 °C	–
COCc1nnc(-c2cccnc2)n1-c1c(C)c(Cl)cc2[nH]c(=O)c(=O)[nH]c12 [Example 110, 7-Chloro-6-methyl-5-[5-methoxymethyl-3-(3-pyridyl)-4H-1,2,4-triazol-4-yl]-2,3(1H,4H)-quinoxalinedione]	> 300 °C	–

More lines, now with the values ahead:

melting point	IC50 [1]	SMILES
286 to 287 °C	–	O=C(O)Cn1nnnc1-c1c(Cl)c(Cl)cc2[nH]c(=O)c(=O)[nH]c12 (hydrate or solvate) [Example 8, 6,7-dichloro-5-(1-carboxymethyltetrazol-5-yl)-2,3(1H,4H)-quinoxalinedione]
> 300 °C	–	Cn1ncnc1-c1c(Cl)c(Cl)cc2[nH]c(=O)c(=O)[nH]c12 (hydrate or solvate) [Example 20]
–	19 nM	Cn1ncnc1-c1c(Cl)c(Cl)cc2[nH]c(=O)c(=O)[nH]c12 [Example 20]
281 to 283 °C	–	COC(=O)Cn1nnnc1-c1c(Cl)c(Cl)cc2[nH]c(=O)c(=O)[nH]c12 [Example 108, 6,7-Dichloro-5-(1-methoxycarbonylmethyltetrazol-5-yl)-2,3(1H,4H)-quinoxalinedione]
